Data taken from US12668600B2 (Kumquat Biosciences Inc., priority 2023, dated 2026).
pIC50: −log10 of the molar value.

Key:
Format in all cases: biochemical
[1] = molecular target: T1, KRAS G12S (Homo sapiens, UniProt P01116, G12S); test: HTRF KRAS-SOS1 interaction assay, KRAS G12S; conditions: binned ≤2 μM / >2 μM, read-out: Inhibition of KRAS G12S (IC50)
T1 construct: made in house; host or cells: E. coli, e.g. BL21 (DE3)
Text: (§1) This assay can be also used to assess a selective inhibition or reduction of signaling output of a mutant Ras protein relative to a wildtype, or relative to a different mutant Ras protein. For example, the equilibrium interaction of wildtype KRAS or K-Ras mutant (e.g., wildtype or a mutant thereof) with SOS1 (e.g., hSOS1) can be assessed as a proxy or an indication for the ability of a subject compound to bind and inhibit Ras protein. The HTRF assay detects from (i) a fluorescence resonance energy transfer (FRET) donor (e.g., antiGST-Europium) that is bound to GST-tagged K-Ras mutant to (ii) a FRET acceptor (e.g., anti-6His-XL665) bound to a His-tagged hSOS1.
(§2) The assay buffer can contain ˜5 mM HEPES pH 7.4, ˜150 mM NaCl, ˜1 mM DTT, 0.05% BSA and 0.0025% (v/v) Igepal. A Ras working solution is prepared in an assay buffer containing typically a suitable amount of the protein construct (e.g., GST-tagged K-Ras mutant) and the FRET donor (e.g., antiGST-Eu (K) from Cisbio, France). A SOS1 working solution is prepared in an assay buffer containing suitable amount of the protein construct (e.g., His-hSOS1) and the FRET acceptor (e.g., anti-6His-XL665 from Cisbio, France). A suitable amount of the protein construct will depend on the range of activity or range of IC50 values being detected or under investigation. For detecting an IC50 within a range of 500 nM, the protein constructs of the same range of molarity can be utilized.
(§3) A fixed volume of DMSO with or without test compound is transferred into a 384-well plate. Ras working solution is added to all wells of the test plate. SOS1 working solution is added to all wells except for those that are subsequently filled with inhibitor control solution. Upon incubation for about 10 minutes or longer, the fluorescence is measured with a M1000Pro plate reader (Tecan) using HTRF detection (excitation 337 nm, emission 1:620 nm, emission 2:665 nm). Compounds are tested in duplicate at different concentrations (for example, 10 μM, 2.5 μM, 0.63 μM, 0.16 μM, 0.04 μM, 0.01 μM test compound). The ratiometric data (i.e., emission 2 divided by emission 1) is used to calculate IC50 values against Ras using GraphPad Prism (GraphPad software). Signaling output measured in terms of IC50 values can be obtained and a ratio of IC50 against one mutant relative to another mutant can be calculated.

[2] = molecular target: T2, KRAS WT (Homo sapiens, UniProt P01116); test: HTRF KRAS-SOS1 interaction assay, wildtype KRAS; conditions: binned ≤2 μM / >2 μM, read-out: Inhibition of KRAS WT (IC50)
T2 construct: made in house; host or cells: E. coli, e.g. BL21 (DE3)
T2 sequence (P01116 1-188 isoform P01116-2): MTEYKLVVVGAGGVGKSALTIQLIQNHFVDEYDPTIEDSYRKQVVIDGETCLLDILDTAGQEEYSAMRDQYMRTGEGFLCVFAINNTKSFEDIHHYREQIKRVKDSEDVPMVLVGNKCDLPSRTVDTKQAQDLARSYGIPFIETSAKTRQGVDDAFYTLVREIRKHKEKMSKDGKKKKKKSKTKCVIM
Text: as §1, §2, §3

[3] = molecular target: T3, KRAS G12V (Homo sapiens, UniProt P01116, G12V); test: HTRF KRAS-SOS1 interaction assay, KRAS G12V; conditions: binned ≤2 μM / >2 μM, read-out: Inhibition of KRAS G12V (IC50)
T3 construct: made in house; host or cells: E. coli, e.g. BL21 (DE3)
T3 sequence (P01116 1-188 isoform P01116-2 G12V): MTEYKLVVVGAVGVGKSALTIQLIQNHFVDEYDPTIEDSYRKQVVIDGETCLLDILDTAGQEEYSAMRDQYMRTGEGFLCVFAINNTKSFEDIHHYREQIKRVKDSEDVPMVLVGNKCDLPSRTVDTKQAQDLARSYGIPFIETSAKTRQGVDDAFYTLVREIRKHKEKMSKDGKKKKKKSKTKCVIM
Text: as §1, §2, §3

[4] = molecular target: T4, KRAS G12D (Homo sapiens, UniProt P01116, G12D); test: HTRF KRAS-SOS1 interaction assay, KRAS G12D; conditions: binned ≤2 μM / >2 μM, read-out: Inhibition of KRAS G12D (IC50)
T4 construct: made in house; host or cells: E. coli, e.g. BL21 (DE3)
T4 sequence (P01116 1-188 isoform P01116-2 G12D): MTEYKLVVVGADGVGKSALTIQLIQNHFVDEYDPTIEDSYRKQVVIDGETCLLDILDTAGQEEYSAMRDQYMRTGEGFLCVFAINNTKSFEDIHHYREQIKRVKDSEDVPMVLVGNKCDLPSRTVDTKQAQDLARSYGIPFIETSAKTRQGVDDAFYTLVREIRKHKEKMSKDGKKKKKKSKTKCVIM
Text: as §1, §2, §3

T1 sequence (P01116 1-188 isoform P01116-2 G12S): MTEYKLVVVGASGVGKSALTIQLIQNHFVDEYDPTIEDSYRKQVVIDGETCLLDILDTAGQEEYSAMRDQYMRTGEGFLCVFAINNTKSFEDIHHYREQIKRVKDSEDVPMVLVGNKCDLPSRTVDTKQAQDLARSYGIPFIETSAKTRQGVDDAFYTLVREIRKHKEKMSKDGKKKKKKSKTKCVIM

| pIC50 [1] | pIC50 [2] | pIC50 [3] | pIC50 [4] | Structure (SMILES) |
| --- | --- | --- | --- | --- |
|  | < 5.70 | < 5.70 | ≥ 5.70 | C=CC[C@H](c1cccnc1N)N1CCOc2c(C(F)(F)F)c(-c3ccc(F)c4sc(N)c(C#N)c34)c(F)c3nc(OC[C@@]45CCCN4C[C@H](F)C5)nc1c23 (single isomer, unassigned) [Compound 734] |
| ≥ 5.70 | ≥ 5.70 | ≥ 5.70 |  | C[C@H](c1cccnc1N)N1CCOc2c(Cl)c(-c3cccc4sc(N)c(C#N)c34)c(F)c3nc(OC[C@@]45CCCN4C[C@H](F)C5)nc1c23 (single isomer, unassigned) [Compound 668] |
| ≥ 5.70 | ≥ 5.70 | ≥ 5.70 |  | N#Cc1c(N)sc2c(F)ccc(-c3c(Cl)c4c5c(nc(OC[C@@]67CCCN6C[C@H](F)C7)nc5c3F)N(C(/C=C\C(F)(F)F)c3cccnc3N)CCO4)c12 (single isomer, unassigned) [Compound 632] |
| ≥ 5.70 | ≥ 5.70 | ≥ 5.70 |  | C#C[C@H]1COc2c(Cl)c(-c3ccc(F)c4sc(N)c(C#N)c34)c(F)c3nc(OC[C@@]45CCCN4C[C@H](F)C5)nc(c23)N1C(C)c1cccnc1N (single isomer, unassigned) [Compound 664] |
|  | ≥ 5.70 |  | ≥ 5.70 | N#Cc1c(N)sc2c(F)ccc(-c3c(C(F)(F)F)c4c5c(nc(OC[C@@]67CCCN6C[C@H](F)C7)nc5c3F)N([C@H](CCC3CCC3)c3cccnc3N)CCO4)c12 (single isomer, unassigned) [Compound 745] |
|  | ≥ 5.70 | ≥ 5.70 | ≥ 5.70 | C[C@H](c1cccnc1N)N1CCOc2c(C(F)(F)F)c(-c3ccc(F)c4sc(N)c(C#N)c34)c(F)c3nc(OC[C@@]45CCCN4C[C@H](F)C5)nc1c23 (single isomer, unassigned) [Compound 757] |
|  |  |  | ≥ 5.70 | CO/N=C1\CN2CCC[C@@]2(COc2nc3c4c(c(Cl)c(-c5ccc(F)c6sc(N)c(C#N)c56)c(F)c4n2)OCCN3[C@H](C)c2cccnc2N)C1 (single isomer, unassigned) [Compound 898] |
|  |  |  | ≥ 5.70 | C#C[C@H]1COc2c(Cl)c(-c3ccc(F)c4sc(N)c(C#N)c34)c(F)c3nc(OC[C@@]45CCCN4C[C@H](F)C5)nc(c23)N1C(C)c1cccnc1N (single isomer, unassigned) [Compound 729] |
| < 5.70 | < 5.70 |  | < 5.70 | Cc1cnc(N)c([C@@H](C)N2CCOc3c(C(F)(F)F)c(-c4ccc(F)c5sc(N)c(C#N)c45)c(F)c4nc(OC[C@@]56CCCN5C[C@H](F)C6)nc2c34)c1 (single isomer, unassigned) [Compound 861] |

Second part, the molecule before the results:

| Structure (SMILES) | pIC50 [1] | pIC50 [2] | pIC50 [3] | pIC50 [4] |
| --- | --- | --- | --- | --- |
| C[C@H](c1cccnc1N)N1CCOc2c(Cl)c(-c3ccc(F)c4sc(N)c(C#N)c34)c(F)c3nc(OCC4(CN(C)C)CC4)nc1c23 (single isomer, unassigned) [Compound 638] | ≥ 5.70 | ≥ 5.70 | ≥ 5.70 |  |
| CCO/N=C(\C)CCC[C@H](c1cccnc1N)N1CCOc2c(C(F)(F)F)c(-c3ccc(F)c4sc(N)c(C#N)c34)c(F)c3nc(OC[C@@]45CCCN4C[C@H](F)C5)nc1c23 (single isomer, unassigned) [Compound 720] |  | ≥ 5.70 | ≥ 5.70 | ≥ 5.70 |
| N#Cc1c(N)sc2c(F)ccc(-c3c(C(F)(F)F)c4c5c(nc(OC[C@@]67CCCN6C[C@H](F)C7)nc5c3F)N([C@H](CC3CCOC3)c3cccnc3N)CCO4)c12 (single isomer, unassigned) [Compound 772] |  | ≥ 5.70 | ≥ 5.70 | ≥ 5.70 |
| N#Cc1c(N)sc2c(F)ccc(-c3c(C(F)(F)F)c4c5c(nc(OC[C@@]67CCCN6C[C@H](F)C7)nc5c3F)N([C@H](CCC3CCOCC3)c3cccnc3N)CCO4)c12 (single isomer, unassigned) [Compound 611] | ≥ 5.70 | ≥ 5.70 | ≥ 5.70 |  |
| CCO/N=C(\C)CCC[C@H](c1cccnc1N)N1CCOc2c(C(F)(F)F)c(-c3ccc(F)c4sc(N)c(C#N)c34)c(F)c3nc(OC[C@@]45CCCN4C[C@H](F)C5)nc1c23 (single isomer, unassigned) [Compound 859] |  | < 5.70 | < 5.70 | < 5.70 |
| CC(c1cncnc1N)N1CCOc2c(Cl)c(-c3ccc(F)c4sc(N)c(C#N)c34)c(F)c3nc(OC[C@@]45CCCN4C[C@H](F)C5)nc1c23 (single isomer, unassigned) [Compound 646] | ≥ 5.70 | ≥ 5.70 | ≥ 5.70 |  |
| N#Cc1c(N)sc2c(F)ccc(-c3c(C(F)(F)F)c4c5c(nc(OC[C@@]67CCCN6C[C@H](F)C7)nc5c3F)N([C@H](CC3CCOC3)c3cccnc3N)CCO4)c12 (single isomer, unassigned) [Compound 911] |  | ≥ 5.70 | ≥ 5.70 | ≥ 5.70 |
| C[C@H](c1cccnc1N)N1CCOc2c(Cl)c(-c3cccc4sc(N)c(C#N)c34)c(F)c3nc(OC[C@@]45CCCN4CC(=C(F)F)C5)nc1c23 (single isomer, unassigned) [Compound 660] | ≥ 5.70 | ≥ 5.70 | ≥ 5.70 |  |
| N#Cc1c(N)sc2c(F)ccc(-c3c(C(F)(F)F)c4c5c(nc(OC[C@@]67CCCN6C[C@H](F)C7)nc5c3F)N([C@H](CC3CCOC3)c3cccnc3N)CCO4)c12 (single isomer, unassigned) [Compound 717] |  | < 5.70 | < 5.70 | < 5.70 |
| N#Cc1c(N)sc2c(F)ccc(-c3c(C(F)(F)F)c4c5c(nc(OC[C@@]67CCCN6[C@H](COc6cnc(C(F)(F)F)cn6)CC7)nc5c3F)N([C@@H](c3cccnc3N)C(F)F)CCO4)c12 (single isomer, unassigned) [Compound 882] | ≥ 5.70 |  | ≥ 5.70 | ≥ 5.70 |
| C[C@H](c1cccnc1N)N1CCOc2c(C(F)(F)F)c(-c3ccc(F)c4sc(N)c(C#N)c34)c(F)c3nc(OC[C@@]45CCCN4C[C@H](F)C5)nc1c23 (single isomer, unassigned) [Compound 768] | ≥ 5.70 |  |  |  |
| C[C@@H]1CN(CC2(COc3nc4c5c(c(C(F)(F)F)c(-c6ccc(F)c7sc(N)c(C#N)c67)c(F)c5n3)OCCN4[C@H](C)c3cccnc3N)CC2)C[C@H](C)O1 [Compound 886, 2-amino-4-(4-((R)-1-(2-aminopyridin-3-yl)ethyl)-2-((1-(((2S,6R)-2,6-dimethylmorpholino)methyl)cyclopropyl)methoxy)-10-fluoro-8-(trifluoromethyl)-5,6-dihydro-4H-[1,4]oxazepino[5,6,7-de]quinazolin-9-yl)-7-fluorobenzo[b]thiophene-3-carbonitrile] |  |  |  | ≥ 5.70 |
| C[C@H](c1cccnc1N)N1CCOc2c(C(F)(F)F)c(-c3cc(F)c(F)c4sc(N)c(C#N)c34)c(F)c3nc(OC[C@@]45CCCN4C[C@H](F)C5)nc1c23 (single isomer, unassigned) [Compound 863] | < 5.70 | < 5.70 |  | < 5.70 |
| N#Cc1c(N)sc2c(F)ccc(-c3c(C(F)(F)F)c4c5c(nc(OC[C@@]67CCCN6[C@H](COc6cnc(C(F)(F)F)cn6)CC7)nc5c3F)N([C@@H](c3cccnc3N)C(F)F)CCO4)c12 (single isomer, unassigned) [Compound 887] |  | ≥ 5.70 |  |  |
